Measured values reported in ChEMBL document CHEMBL1153457, “Effects of structural analogues of the substrate and allosteric regulator of the human mitochondrial NAD(P)+-dependent malic enzyme” (Bioorg Med Chem, 2009).
The source made the active and inactive calls. No cut-off for these calls is given here.

Experiments:
[1] = species on record: Homo sapiens; assay: Inhibition of human mitochondrial NADP-ME E59L mutant expressed in Escherichia coli XL-1 assessed as residual enzyme activity by spectrophotometry in absence of fumarate
[2] = species on record: Homo sapiens; assay: Inhibition of human mitochondrial NADP-ME E59L mutant expressed in Escherichia coli XL-1 assessed as residual enzyme activity by spectrophotometry in presence of fumarate
[3] = species on record: Homo sapiens; assay: Activation of human mitochondrial NADP-ME E59L mutant expressed in Escherichia coli XL-1 by spectrophotometry

O=C(O)/C=C/CC(=O)O
Activity [1]: Active | Activity [2]: Active

O=C(O)CC(=O)O
Activity [1]: Active | Activity [2]: Active

O=C(O)/C=C\C(=O)O
Activity [1]: Active | Activity [2]: Active

O=C(O)/C=C/C(=O)O
Activity [3]: inactive
